Measured values from patent US20210401821A1, “PROPHYLACTIC OR THERAPEUTIC AGENT AND MEDICINAL COMPOSITION FOR IL-31-MEDIATED DISEASE” (Kyushu University, National University Corporation, priority 2018, published 2021).

Key:
wild-type C57BL/6 mice [1] = experiment: Scratching behavior induced by IL-31 after NK3R antagonist administration; format: in vivo, mouse; conditions: 45 minutes before intradermal IL-31 (1 μg/50 μl)
Experimental: (§1) Prior to the experiments, mice were placed in an acrylic cage (11 cm×14 cm×20 cm) for at least 1 hour to acclimatize to the environment. Subsequently, 50 μL of a pruritus-inducing substance dissolved in sterilized physiological saline was injected intradermally into shoulders of the mice, and the behavior of these mice was videotaped. The total number of scratching behavior within a specified time was determined by playing the video. During the scratching behavior of a mouse, the mouse extends its hind leg to the itchy area, tilts its head toward the hind leg, quickly turns the hind leg several times, and returns the hind leg to the ground. These series of actions were counted as one scratching behavior. As pruritus-inducing substances. IL-31 (1 μg/50 μl; PeproTech Inc.). SLIGRL-NH2 (100 μg/50 μl; Bachem Holding AG), chloroquine (100 μg/50 μl; Wako Pure Chemical Industries.), and histamine (100 μg/50 μl; Wako Pure Chemical Industries.) were used.
(§2) In some experiments, the actions of NK3R antagonists on the scratching behavior of the mice were investigated. As compounds having activity as an NK3R antagonist or an NK3R antagonist, osanetant (Axon Medchem.), talnetant (NAMIKI SHOJI Co., Ltd.), pavinetant (NAMIKI SHOJI Co., Ltd.), fezolinetant (Haoyuan Chemexpress Co., Ltd.). SSR-146977 (Tocris Bioscience.), SSR-241586 (WuXi AppTec New Drug Development Co. Ltd.), SB-235375 (WuXi AppTec New Drug Development Co. Ltd.), and CS-003 (WuXi AppTec New Drug Development Co. Ltd.) were used. These compounds were administered to the mice in a predetermined amount per weight of each mouse 45 minutes before the intradermal injection of the pruritus-inducing substance. Osanetant was dissolved in phosphate buffered saline (PBS) containing 0.1% Tween-20 and intraperitoneally injected at 5 mg/kg. Talnetant and pavinetant were dissolved in a mixture of 10% dimethyl sulfoxide (DMSO), 40% polyethylene glycol 300, 5% Tween-80, and 45% saline and were intraperitoneally injected at 30 mg/kg. Fezolinetant was dissolved in PBS containing 10% DMSO and orally administered at 10 mg/kg. SSR-146977 was dissolved in PBS containing 0.1% ethanol and intraperitoneally injected at 0.3 mg/kg. SSR-241586 was dissolved in a 0.01% Tween-80 aqueous solution and intraperitoneally injected at 3 mg/kg. SB-235375 was dissolved in PBS and orally administered at 3 mg/kg. CS-003 was dissolved in PBS containing 5% glucose and intravenously injected at 3 mg/kg.
(§3) Similar to osanetant, fezolinetant that is a selective antagonist of NK3R was orally administered to wild-type C57BL/6 mice, and the effect on the scratching behavior induced by IL-31, histamine, or chloroquine was analyzed.
(§4) Furthermore, CS-003 that is an antagonist to neurokinin 3 receptor (NK3R) and also an antagonist to neurokinin 1 receptor (NK1R) and neurokinin 2 receptor (NK2R), and SSR-241586 that is an antagonist to NK3R and NK2R were administered to wild-type C57BL/6 mice, and then the effects of the compounds on the scratching behavior induced by IL-31 or chloroquine were analyzed.

wild-type C57BL/6 mice [2] = experiment: Scratching behavior induced by chloroquine after NK3R antagonist administration; format: in vivo, mouse; conditions: 45 minutes before intradermal chloroquine (100 μg/50 μl)
Experimental: as §1, §2, §3, §4

wild-type C57BL/6 mice [3] = experiment: Scratching behavior induced by histamine after NK3R antagonist administration; format: in vivo, mouse; conditions: 45 minutes before intradermal histamine (100 μg/50 μl)
Experimental: as §1
In some experiments, the actions of NK3R antagonists on the scratching behavior of the mice were investigated. […]
as §3

Tac2−/− (Δ4) mice = experiment: Scratching behavior after injecting NKB into medullary cavities; format: in vivo, mouse; conditions: FIG. 10(a)
Experimental: Next, in order to identify the site where NKB was functioning. NKB was injected into medullary cavities of Tac2^−/− (Δ4) mice, and scratching behavior was analyzed.

Nppb mRNA = Nppb mRNA expression in stimulated DRG neurons in vitro; format: cell-based, mouse; conditions: DRG neurons from wild-type C57BL/6 mice stimulated with NKB in vitro; FIG. 4(b)
Experimental: (§5) Total RNAs were extracted from each tissue using ISOGEN (NIPPON GENE CO., LTD.). Total RNAs were treated with RNase-free DNase I (Thermo Fisher Scientific K.K.). This RNA sample was reverse transcribed using an oligo (dT) primer (v) and SuperScript III reverse transcriptase (Thermo Fisher Scientific K.K.), and amplified by PCR. Real-time PCR was performed by Cfx Connect™ Thermal Cycler (Bio-Rad Laboratories, Inc.) using SYBR Green PCR Master Mix (Applied Biosystems). The expression level of the target gene was normalized by an expression level of Hprt gene. For the analysis, CFX Manager (ver3.1) attached to a device was used.
(§6) Changes in the expression levels of Tac2, Grp. and Nppb through administration of IL-31 or NKB were analyzed. First. DRG neurons isolated from the wild-type C57BL/6 mice were stimulated by the addition of the IL-31 protein in vitro, and the expression levels of Tac2 mRNA, Grp mRNA, and Nppb mRNA were analyzed.
(§7) Next, DRG neurons isolated from the wild-type C57BL/6 mice were stimulated by neurokinin B (NKB) in vitro, and the expression levels of Grp mRNA and Nppb mRNA were analyzed.

Grp mRNA = Grp mRNA expression in stimulated DRG neurons in vitro; format: cell-based, mouse; conditions: DRG neurons from wild-type C57BL/6 mice stimulated with NKB in vitro; FIG. 4(b)
Experimental: as §5, §6, §7

[4] = SSR-241586 3 mg/kg intraperitoneal, CS-003 3 mg/kg intravenous, FIGS. 16(a), 17(a)
[5] = 30 mg/kg intraperitoneal, FIGS. 13(a), 14(a)
[6] = 30 mg/kg intraperitoneal, FIGS. 13(b), 14(b)

## COc1cc(C(=O)N2CCO[C@](CCN3CCC4(CC3)c3ccccc3C[S@+]4[O-])(c3ccc(Cl)c(Cl)c3)C2)cc(OC)c1OC [CS-003]
wild-type C57BL/6 mice [1]; [4]
  frequency of scratching behavior induced by IL-31: suppressed

## CC[C@H](NC(=O)c1c(OCC(=O)O)c(-c2ccccc2)nc2ccccc12)c1ccccc1 [SB-235375, 2-[2-phenyl-4-[N-[1 (S)-phenylpropyl]carbamoyl]quinoline-3-yloxy]acetic acid]
wild-type C57BL/6 mice [1]; 3 mg/kg oral, FIG. 18(a)
  frequency of scratching behavior induced by IL-31: did decrease
wild-type C57BL/6 mice [2]; 3 mg/kg oral, FIG. 18(b)
  frequency of scratching behavior by chloroquine: did not decrease

## CN(C)C(=O)C1(N2CCCCC2)CCN(CC[C@@]2(c3ccc(Cl)c(Cl)c3)CN(C(=O)c3ccccc3)CCO2)CC1 [SSR-241586, (+)-1′-[2-[4-benzoyl-2(R)-(3,4-dichlorophenyl)morpholine-2-yl]ethyl]-N,N-dimethyl-1,4′-bipiperidin-4′-carboxamide]
wild-type C57BL/6 mice [1]; [4]
  frequency of scratching behavior induced by IL-31: suppressed

## Cc1nsc(-c2nnc3n2CCN(C(=O)c2ccc(F)cc2)[C@@H]3C)n1 [fezolinetant, (4-fluorophenyl)-[(8R)-8-methyl-3-(3-methyl-1,2,4-thiadiazole-5-yl)-6,8-dihydro-5H-[1,2,4]triazolo[4,3-a]pyrazine-7-yl]-methanone]
wild-type C57BL/6 mice [1]; fezolinetant 10 mg/kg oral, FIG. 12(a)
  frequency of scratching behavior by IL-31: decreased
wild-type C57BL/6 mice [3]; fezolinetant 10 mg/kg oral, FIG. 12(b)
  frequency of scratching behavior by histamine: did not decrease
wild-type C57BL/6 mice [2]; fezolinetant 10 mg/kg oral, FIG. 12(c)
  frequency of scratching behavior by chloroquine: did not decrease

## CC(=O)N(C)C1(c2ccccc2)CCN(CCC[C@]2(c3ccc(Cl)c(Cl)c3)CCCN(C(=O)c3ccccc3)C2)CC1 [osanetant, N-[1-[3-[(3R)-1-benzoyl-3-(3,4-dichlorophenyl)piperidine-3-yl)propyl)-4-phenylpiperidine-4-yl]-N-methyl acetamide]
wild-type C57BL/6 mice [1]; osanetant 5 mg/kg intraperitoneal, FIG. 11(c)
  frequency of scratching behavior by IL-31: decreased
wild-type C57BL/6 mice [3]; osanetant 5 mg/kg intraperitoneal, FIG. 11(d)
  frequency of scratching behavior by histamine: did not decrease
wild-type C57BL/6 mice [2]; osanetant 5 mg/kg intraperitoneal, FIG. 11(e)
  frequency of scratching behavior by chloroquine: did not decrease

## CC[C@H](NC(=O)c1c(NS(C)(=O)=O)c(-c2ccccc2)nc2ccccc12)c1ccccc1 [pavinetant]
wild-type C57BL/6 mice [1]; [5]
  frequency of scratching behavior induced by IL-31: did decrease
wild-type C57BL/6 mice [2]; [6]
  frequency of scratching behavior by chloroquine: did not decrease

## CC[C@H](NC(=O)c1c(O)c(-c2ccccc2)nc2ccccc12)c1ccccc1 [talnetant, N-(α-ethylbenzyl)-3-hydroxy-2-phenylquinoline-4-carboxamide]
wild-type C57BL/6 mice [1]; [5]
  frequency of scratching behavior induced by IL-31: did decrease
wild-type C57BL/6 mice [2]; [6]
  frequency of scratching behavior by chloroquine: did not decrease

## NKB: mature neurokinin B, neuropeptide from PPT-3 (Tac2 gene), SEQ ID NO: 2; binds neurokinin receptor 3 (DMHDFFVGLM; listed as Homo sapiens)
Tac2−/− (Δ4) mice
  scratching behavior after intramedullary injection of NKB: induced the scratching behavior
Nppb mRNA
  expression level of Nppb mRNA: increased
Grp mRNA
  expression level of Grp mRNA: increased
